Results on 2 molecules are retold here after patent publication US10231954B2, “Neurodegenerative therapies” (LYTIX BIOPHARMA AS, priority 2014, dated 2019).

What all share (conditions): 100 micromolar inhibitor concentration; 100 is no change
Test [1] addresses PKCγ (Homo sapiens, UniProt P05129). The test can be described thus: Kinase profiling PKCγ. In kind it is biochemical. An excerpt: (§1) Any value less that 25 is considered to be highly significant inhibition.
Test [2] deals with T1, LKB1 (Homo sapiens, UniProt Q15831).
T1 sequence (Q15831 1-433): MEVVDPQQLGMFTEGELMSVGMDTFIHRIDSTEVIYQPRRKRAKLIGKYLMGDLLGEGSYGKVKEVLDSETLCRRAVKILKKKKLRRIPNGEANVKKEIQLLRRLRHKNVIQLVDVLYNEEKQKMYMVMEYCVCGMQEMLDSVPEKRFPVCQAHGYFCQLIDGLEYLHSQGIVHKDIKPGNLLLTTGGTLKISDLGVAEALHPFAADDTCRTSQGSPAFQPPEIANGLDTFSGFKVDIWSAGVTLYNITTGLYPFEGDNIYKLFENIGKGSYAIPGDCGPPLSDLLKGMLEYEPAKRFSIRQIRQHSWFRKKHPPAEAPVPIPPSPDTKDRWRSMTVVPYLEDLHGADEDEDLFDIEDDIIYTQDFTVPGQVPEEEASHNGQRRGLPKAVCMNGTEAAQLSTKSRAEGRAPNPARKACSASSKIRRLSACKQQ
T1 sequence (Q7RTN6 1-431 partner): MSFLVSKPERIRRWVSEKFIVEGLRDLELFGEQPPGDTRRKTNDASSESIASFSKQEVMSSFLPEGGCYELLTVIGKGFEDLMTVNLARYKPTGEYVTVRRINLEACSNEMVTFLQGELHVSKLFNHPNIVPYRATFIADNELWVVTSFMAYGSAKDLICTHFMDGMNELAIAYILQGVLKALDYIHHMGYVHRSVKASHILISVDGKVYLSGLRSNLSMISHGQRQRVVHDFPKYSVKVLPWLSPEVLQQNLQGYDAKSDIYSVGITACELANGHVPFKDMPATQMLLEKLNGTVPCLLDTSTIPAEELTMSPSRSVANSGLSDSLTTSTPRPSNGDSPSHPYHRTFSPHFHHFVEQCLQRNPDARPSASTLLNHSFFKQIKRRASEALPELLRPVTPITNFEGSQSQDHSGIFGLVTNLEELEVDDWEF
T1 sequence (Q9Y376 1-341 partner): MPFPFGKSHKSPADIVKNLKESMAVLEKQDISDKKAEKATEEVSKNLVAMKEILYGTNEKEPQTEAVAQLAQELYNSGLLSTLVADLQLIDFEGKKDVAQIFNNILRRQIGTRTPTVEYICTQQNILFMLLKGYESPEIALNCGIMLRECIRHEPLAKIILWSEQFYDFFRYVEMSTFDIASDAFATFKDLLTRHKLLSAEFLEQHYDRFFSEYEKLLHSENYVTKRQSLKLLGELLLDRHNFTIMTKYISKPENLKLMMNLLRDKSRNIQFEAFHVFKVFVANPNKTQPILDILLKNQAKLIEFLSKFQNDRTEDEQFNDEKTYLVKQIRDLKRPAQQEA
The test can be described thus: Kinase profiling LKB1. In kind it is biochemical.
From the text: as §1

Test [3] deals with RSK2 (Homo sapiens, UniProt P51812). In words: Kinase profiling RSK2. In kind it is biochemical.
From the text: as §1

Test [4] concerns the target HIPK2 (Homo sapiens, UniProt Q9H2X6). In words: Kinase profiling HIPK2. In kind it is biochemical.
From the text: as §1

In test [5] the target is S6K1 (Homo sapiens, UniProt P23443). In words: Kinase profiling S6K1. In kind it is biochemical.
From the text: as §1

Test [6] concerns AMPK (hum). The test can be described thus: Kinase profiling AMPK (hum). Type of test: biochemical, human.
From the text: as §1

Test [7] concerns the target CAMKKb (Homo sapiens, UniProt Q96RR4). In words: Kinase profiling CAMKKb. In kind it is biochemical.
From the text: as §1

Test [8] addresses STK33 (Homo sapiens, UniProt Q9BYT3). In words: Kinase profiling STK33. Type of test: biochemical.
From the text: as §1

In test [9] the target is T2, MST2 (Homo sapiens, UniProt Q13188).
T2 sequence (Q13188 1-491): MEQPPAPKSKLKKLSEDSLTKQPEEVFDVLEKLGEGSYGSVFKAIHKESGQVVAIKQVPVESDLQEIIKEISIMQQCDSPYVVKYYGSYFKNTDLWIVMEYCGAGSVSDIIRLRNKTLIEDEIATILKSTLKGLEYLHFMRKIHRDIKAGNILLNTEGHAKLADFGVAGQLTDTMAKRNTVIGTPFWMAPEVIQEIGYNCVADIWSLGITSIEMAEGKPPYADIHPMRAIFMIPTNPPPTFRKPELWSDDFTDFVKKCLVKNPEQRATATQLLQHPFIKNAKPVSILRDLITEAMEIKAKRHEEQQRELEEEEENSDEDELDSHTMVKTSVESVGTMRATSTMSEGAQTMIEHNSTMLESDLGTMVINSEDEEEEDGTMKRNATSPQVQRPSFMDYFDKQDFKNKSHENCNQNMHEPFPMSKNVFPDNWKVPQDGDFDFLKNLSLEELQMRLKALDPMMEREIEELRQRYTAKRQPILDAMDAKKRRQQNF
In words: Kinase profiling MST2. Type of test: biochemical.
From the text: as §1

In test [10] the target is T3, MKK6 (Homo sapiens, UniProt P52564).
T3 sequence (P52564 1-334): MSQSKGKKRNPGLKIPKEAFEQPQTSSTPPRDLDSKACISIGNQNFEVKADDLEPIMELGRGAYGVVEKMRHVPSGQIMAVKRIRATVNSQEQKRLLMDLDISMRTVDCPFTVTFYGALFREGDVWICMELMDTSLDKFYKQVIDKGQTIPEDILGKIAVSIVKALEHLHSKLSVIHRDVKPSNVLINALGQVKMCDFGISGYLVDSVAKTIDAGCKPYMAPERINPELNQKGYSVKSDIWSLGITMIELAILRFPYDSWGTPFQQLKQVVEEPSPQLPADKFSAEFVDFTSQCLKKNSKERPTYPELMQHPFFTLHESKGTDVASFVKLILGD
The test can be described thus: Kinase profiling MKK6. In kind it is biochemical.
From the text: as §1

The target of test [11] is PAK4 (Homo sapiens, UniProt O96013). In words: Kinase profiling PAK4. Type of test: biochemical.
From the text: as §1

The target in test [12] is T4, TAK1 (Homo sapiens, UniProt O43318).
T4 sequence (O43318 1-303 limits assumed): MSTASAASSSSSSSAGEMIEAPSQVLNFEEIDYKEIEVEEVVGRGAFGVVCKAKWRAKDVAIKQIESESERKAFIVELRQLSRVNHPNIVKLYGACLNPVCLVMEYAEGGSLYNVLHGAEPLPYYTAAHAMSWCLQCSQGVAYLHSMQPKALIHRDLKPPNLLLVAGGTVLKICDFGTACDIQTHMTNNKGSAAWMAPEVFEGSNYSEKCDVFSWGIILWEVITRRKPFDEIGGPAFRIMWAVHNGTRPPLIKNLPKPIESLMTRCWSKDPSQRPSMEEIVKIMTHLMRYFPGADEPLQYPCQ
T4 sequence (Q15750 437-504 partner limits assumed): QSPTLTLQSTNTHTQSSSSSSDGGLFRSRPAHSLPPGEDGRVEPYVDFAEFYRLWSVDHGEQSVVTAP
In words: Kinase profiling TAK1. In kind it is biochemical.
From the text: as §1

Sequence of HIPK2 (Q9H2X6 whole entry, species assumed): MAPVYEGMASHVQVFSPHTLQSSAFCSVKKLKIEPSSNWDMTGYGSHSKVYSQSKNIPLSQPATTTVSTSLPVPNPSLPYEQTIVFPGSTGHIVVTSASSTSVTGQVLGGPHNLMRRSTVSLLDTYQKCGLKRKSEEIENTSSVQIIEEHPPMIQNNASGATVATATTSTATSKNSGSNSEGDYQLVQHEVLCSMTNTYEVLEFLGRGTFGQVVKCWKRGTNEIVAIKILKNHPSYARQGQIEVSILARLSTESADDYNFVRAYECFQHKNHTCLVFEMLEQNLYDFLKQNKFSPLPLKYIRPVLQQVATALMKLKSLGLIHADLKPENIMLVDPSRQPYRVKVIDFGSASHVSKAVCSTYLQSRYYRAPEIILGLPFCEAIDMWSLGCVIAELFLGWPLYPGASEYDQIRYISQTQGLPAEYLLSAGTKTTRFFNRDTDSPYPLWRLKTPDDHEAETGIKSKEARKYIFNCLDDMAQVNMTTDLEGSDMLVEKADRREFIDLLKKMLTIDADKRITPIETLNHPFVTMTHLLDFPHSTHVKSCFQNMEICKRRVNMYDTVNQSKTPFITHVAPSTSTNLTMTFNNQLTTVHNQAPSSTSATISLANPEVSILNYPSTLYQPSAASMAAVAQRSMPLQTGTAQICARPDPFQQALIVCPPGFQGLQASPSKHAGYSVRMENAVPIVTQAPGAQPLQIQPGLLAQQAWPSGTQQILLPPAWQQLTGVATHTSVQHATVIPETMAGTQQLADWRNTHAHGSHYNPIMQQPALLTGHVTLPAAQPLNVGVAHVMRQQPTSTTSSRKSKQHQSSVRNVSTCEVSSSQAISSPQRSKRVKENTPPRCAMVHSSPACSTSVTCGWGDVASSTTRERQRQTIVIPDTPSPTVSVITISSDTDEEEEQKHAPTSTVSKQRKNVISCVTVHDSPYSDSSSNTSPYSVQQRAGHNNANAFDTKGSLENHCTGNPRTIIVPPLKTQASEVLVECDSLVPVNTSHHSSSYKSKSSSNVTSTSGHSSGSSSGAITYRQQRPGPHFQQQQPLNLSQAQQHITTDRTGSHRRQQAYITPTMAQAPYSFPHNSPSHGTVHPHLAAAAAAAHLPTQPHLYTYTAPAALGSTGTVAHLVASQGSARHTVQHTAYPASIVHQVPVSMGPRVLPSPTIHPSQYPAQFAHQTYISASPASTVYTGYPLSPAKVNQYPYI
Sequence of S6K1 (P23443 whole entry, species assumed): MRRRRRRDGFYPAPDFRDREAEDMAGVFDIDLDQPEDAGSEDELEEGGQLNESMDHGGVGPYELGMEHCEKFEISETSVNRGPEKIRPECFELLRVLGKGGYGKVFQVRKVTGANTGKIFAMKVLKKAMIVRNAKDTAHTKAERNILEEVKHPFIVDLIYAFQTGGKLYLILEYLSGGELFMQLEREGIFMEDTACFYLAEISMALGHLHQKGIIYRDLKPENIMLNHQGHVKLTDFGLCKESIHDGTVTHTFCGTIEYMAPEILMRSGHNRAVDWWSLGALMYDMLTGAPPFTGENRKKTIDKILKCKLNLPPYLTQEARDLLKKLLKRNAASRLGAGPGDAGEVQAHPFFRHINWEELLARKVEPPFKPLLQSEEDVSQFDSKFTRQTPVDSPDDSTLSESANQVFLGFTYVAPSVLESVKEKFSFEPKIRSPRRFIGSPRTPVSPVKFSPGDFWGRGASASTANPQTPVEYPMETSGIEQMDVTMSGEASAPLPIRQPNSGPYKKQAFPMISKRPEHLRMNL
Sequence of CAMKKb (Q96RR4 whole entry, species assumed): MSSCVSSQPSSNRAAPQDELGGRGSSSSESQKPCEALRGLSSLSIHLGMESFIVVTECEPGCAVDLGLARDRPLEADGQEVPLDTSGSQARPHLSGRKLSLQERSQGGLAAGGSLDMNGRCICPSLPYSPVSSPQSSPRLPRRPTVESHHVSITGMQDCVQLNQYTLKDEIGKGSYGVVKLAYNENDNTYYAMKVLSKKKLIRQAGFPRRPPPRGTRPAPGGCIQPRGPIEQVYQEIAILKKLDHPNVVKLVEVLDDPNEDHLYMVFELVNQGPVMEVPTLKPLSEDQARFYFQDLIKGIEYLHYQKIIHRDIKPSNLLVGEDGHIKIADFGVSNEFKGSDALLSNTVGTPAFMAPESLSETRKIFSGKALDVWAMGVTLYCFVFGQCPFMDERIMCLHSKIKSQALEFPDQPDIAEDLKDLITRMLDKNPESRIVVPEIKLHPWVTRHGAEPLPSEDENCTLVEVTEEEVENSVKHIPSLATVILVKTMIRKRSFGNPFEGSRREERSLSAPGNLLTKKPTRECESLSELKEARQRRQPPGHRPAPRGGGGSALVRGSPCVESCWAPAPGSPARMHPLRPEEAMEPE
Sequence of STK33 (Q9BYT3 whole entry, species assumed): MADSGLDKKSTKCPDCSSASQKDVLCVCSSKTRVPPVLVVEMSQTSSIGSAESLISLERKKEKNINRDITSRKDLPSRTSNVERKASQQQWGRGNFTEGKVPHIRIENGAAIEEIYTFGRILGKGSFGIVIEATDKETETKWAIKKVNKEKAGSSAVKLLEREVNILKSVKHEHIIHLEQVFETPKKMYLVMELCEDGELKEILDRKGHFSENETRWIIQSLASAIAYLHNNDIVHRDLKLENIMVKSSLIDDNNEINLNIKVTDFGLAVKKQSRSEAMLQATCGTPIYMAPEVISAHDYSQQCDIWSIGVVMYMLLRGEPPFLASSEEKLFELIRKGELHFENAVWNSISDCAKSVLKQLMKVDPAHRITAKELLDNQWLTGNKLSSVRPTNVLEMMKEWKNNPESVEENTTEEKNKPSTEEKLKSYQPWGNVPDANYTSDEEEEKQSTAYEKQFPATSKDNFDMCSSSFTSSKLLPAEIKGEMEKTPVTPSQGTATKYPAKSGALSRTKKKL
Sequence of RSK2 (P51812 whole entry, species assumed): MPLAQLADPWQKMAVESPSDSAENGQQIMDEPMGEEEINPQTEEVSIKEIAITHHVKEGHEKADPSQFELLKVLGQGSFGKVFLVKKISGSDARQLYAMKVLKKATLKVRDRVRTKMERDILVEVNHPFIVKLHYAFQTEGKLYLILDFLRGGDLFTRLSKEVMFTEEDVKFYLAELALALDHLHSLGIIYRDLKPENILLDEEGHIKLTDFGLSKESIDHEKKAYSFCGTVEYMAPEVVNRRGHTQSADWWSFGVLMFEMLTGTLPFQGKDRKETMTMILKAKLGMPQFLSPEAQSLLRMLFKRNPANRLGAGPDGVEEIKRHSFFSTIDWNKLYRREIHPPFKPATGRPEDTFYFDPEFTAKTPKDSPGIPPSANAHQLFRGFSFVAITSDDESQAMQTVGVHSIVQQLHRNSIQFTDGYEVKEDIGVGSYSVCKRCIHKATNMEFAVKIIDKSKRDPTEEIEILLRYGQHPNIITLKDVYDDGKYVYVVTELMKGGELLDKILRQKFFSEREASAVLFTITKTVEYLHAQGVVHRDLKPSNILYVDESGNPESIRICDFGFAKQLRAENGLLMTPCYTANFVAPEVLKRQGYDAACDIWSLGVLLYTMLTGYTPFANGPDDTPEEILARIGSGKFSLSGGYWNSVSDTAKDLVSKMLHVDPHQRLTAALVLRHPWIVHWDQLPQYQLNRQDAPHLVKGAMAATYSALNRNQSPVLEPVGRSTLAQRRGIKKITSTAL
Sequence of PAK4 (O96013 whole entry, species assumed): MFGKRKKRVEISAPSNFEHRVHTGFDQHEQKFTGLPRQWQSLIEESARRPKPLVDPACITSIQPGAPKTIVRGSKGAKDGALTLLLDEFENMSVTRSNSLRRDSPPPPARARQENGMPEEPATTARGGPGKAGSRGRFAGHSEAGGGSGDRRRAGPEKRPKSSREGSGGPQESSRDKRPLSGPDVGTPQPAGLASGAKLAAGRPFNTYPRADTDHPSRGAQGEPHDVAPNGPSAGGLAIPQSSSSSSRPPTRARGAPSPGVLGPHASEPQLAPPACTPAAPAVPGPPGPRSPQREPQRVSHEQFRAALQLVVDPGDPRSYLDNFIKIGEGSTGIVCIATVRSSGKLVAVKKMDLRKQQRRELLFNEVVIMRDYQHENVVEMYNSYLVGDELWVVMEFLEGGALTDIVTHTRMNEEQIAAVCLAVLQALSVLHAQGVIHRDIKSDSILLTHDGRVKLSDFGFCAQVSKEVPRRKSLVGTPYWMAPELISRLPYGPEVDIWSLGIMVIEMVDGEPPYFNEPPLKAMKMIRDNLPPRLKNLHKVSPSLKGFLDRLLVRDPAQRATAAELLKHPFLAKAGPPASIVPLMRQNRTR

Turning to `O=C(Nc1nc2ccc(O)cc2s1)c1ccncc1` [Compound 08-42], the “residual kinase activity, PKCγ” value in test [1] is listed as 93. For the same molecule, in test [2], the “residual kinase activity, LKB1” value came to 65. Besides, the “residual kinase activity, RSK2” value in test [3] was determined as 62. In addition, the “residual kinase activity, HIPK2” value in test [4] was found to be 23. Further, the “residual kinase activity, S6K1” value in test [5] came to 38. Also, in [6], the “residual kinase activity, AMPK (hum)” value is 65. The “residual kinase activity, CAMKKb” value in test [7] is 68. Besides, in [8], the “residual kinase activity, STK33” value is recorded as 67. The “residual kinase activity, MST2” value in test [9] was 55. Also, the “residual kinase activity, MKK6” value in [10] is reported as 101. Also, in test [11], the “residual kinase activity, PAK4” value is 69. For the same molecule, the “residual kinase activity, TAK1” value in test [12] amounted to 25.

On to `O=C(Nc1nc2ccc(O)cc2s1)c1cccnc1` [Compound 08-44], for which the “residual kinase activity, PKCγ” value in test [1] was 73. In addition, in [2], the “residual kinase activity, LKB1” value was 45. The “residual kinase activity, RSK2” value in test [3] was 56. Moreover, in [4], the “residual kinase activity, HIPK2” value is 19. Also, the “residual kinase activity, S6K1” value in test [5] is 17. For the same molecule, in test [6], the “residual kinase activity, AMPK (hum)” value is recorded as 55. Further, the “residual kinase activity, CAMKKb” value in test [7] is 59. In addition, the “residual kinase activity, STK33” value in test [8] is listed as 57. Further, in [9], the “residual kinase activity, MST2” value is reported as 57. The “residual kinase activity, MKK6” value in test [10] stood at 107. In addition, in test [11], the “residual kinase activity, PAK4” value was determined as 64. The “residual kinase activity, TAK1” value in [12] is reported as 18.
